The assay has as its target T1, WIZ protein (HiBit-WIZ fusion protein) (Homo sapiens, UniProt O95785+Q96SW2).
T1 construct: expressed in transfected cells
Description: Quantification of WIZ protein levels in HiBit tag fusion protein assay (WIZ HiBit assay in 293T cells). The conditions noted are these: for Dmax at 25 µM / remaining activity at 25 µM: HEK-293T, 293T cells; for Dmax at 25 µM: 100 − Amax, read-out: % degradation of WIZ (100 − Amax); for remaining activity at 25 µM: DMSO-normalized, curve-fitted percentage of WIZ-HiBit remaining at 25 uM, read-out: WIZ Amax; for DC50: WIZ HiBit assay in 293T cells, 10-point, 5-fold dose response, highest concentration 25 μM, about 18 hours, read-out: WIZ AC50. It counts as cell-based. The procedure: The HiBit system from Promega was used to develop high-throughput and quantitative assays to measure changes in WIZ protein levels in response to compounds. The HiBit tag was derived from a split Nanoluciferase and has the following protein sequence: […] (SEQ ID NO: 1). The complementary fragment of Nanoluciferase (known as LgBit, from Promega), was added to the HiBit tag to form an active Nanoluciferase enzyme whose activity can be precisely measured. In this way, the levels of a fusion protein with the HiBit tag can be quantified in cell lysates.
Lentiviral vectors, based on the Invitrogen™ pLenti6.2/V5 DEST backbone were constructed that places the HiBit tag upstream of WIZ and expressed the fusion protein from an HSVTK promotor.
To ensure moderate and consistent expression of the HiBit-WIZ fusion protein across all cells in the population, stable cell lines were constructed from cells harboring a single copy of the construct. Lentivirus packaged with the constructs were made using the ViraPower™ kit from Invitrogen™. 293T cells from ATCC (Catalog number: CRL-3216), were infected with the virus at low multiplicity of infection and selected by 5 μg/mL blasticidin in culture media for 2 weeks.
The levels of HiBit-WIZ tagged fusion proteins in compound-treated cell lines were measured as follows:
On day 1, cells were diluted to 1.0×10^6 cells/ml in normal growth medium. 20 μL of cell suspension were plated in each well of a solid white 384-well plate. Plates were incubated overnight in a 37° C. and 5% CO2 humidified tissue culture incubator.
On day 2, serial dilutions of compounds were made in 384-well plates. Compound plates were set up with DMSO in columns 1, 2, 23, 24, and 10-point compound dilution series in column 3-12 and column 13-22. 10 mM stock solution of compound were placed into column 3 or 13 and a 1:5 serial dilution was carried out until there was a 10-point dilution series per compound. 50 nL of diluted compounds were transferred into the plated cells by Echo® (Labcyte) acoustic transfer. The highest concentration of compound was 25 μM. Plates were incubated overnight (about 18 hours) in a 37° C. and 5% CO2 humidified tissue culture incubator.
On day 3, plates were removed from the incubator and allowed to equilibrate at room temperature for 60 minutes. HiBit substrate (Nano-Glo® HiBit Lytic Detection System, Promega Catalogue number: N3050) was added as described by the manufacturers protocols. Plates were incubated at room temperature for 30 minutes and luminescence was read using an EnVision® reader (PerkinElmer®). Data was analyzed and visualized using the Spotfire® software package.
WIZ Degradation Activity of Compounds (Table 1)
WIZ Amax reflects the DMSO-normalized, curve-fitted percentage of WIZ-HiBit remaining at 25 uM. It was calculated by normalizing […] controls to 100%, parametric curve fitting of the dose response data (10-point, 5-fold), followed by calculation of response at 25 uM using the fitted equation (nd=not determined).
(HiBiT is a short tag that completes a luciferase, so light tracks the accessible tagged protein.)

T1 sequence (O95785 whole entry, the tested form may be a part): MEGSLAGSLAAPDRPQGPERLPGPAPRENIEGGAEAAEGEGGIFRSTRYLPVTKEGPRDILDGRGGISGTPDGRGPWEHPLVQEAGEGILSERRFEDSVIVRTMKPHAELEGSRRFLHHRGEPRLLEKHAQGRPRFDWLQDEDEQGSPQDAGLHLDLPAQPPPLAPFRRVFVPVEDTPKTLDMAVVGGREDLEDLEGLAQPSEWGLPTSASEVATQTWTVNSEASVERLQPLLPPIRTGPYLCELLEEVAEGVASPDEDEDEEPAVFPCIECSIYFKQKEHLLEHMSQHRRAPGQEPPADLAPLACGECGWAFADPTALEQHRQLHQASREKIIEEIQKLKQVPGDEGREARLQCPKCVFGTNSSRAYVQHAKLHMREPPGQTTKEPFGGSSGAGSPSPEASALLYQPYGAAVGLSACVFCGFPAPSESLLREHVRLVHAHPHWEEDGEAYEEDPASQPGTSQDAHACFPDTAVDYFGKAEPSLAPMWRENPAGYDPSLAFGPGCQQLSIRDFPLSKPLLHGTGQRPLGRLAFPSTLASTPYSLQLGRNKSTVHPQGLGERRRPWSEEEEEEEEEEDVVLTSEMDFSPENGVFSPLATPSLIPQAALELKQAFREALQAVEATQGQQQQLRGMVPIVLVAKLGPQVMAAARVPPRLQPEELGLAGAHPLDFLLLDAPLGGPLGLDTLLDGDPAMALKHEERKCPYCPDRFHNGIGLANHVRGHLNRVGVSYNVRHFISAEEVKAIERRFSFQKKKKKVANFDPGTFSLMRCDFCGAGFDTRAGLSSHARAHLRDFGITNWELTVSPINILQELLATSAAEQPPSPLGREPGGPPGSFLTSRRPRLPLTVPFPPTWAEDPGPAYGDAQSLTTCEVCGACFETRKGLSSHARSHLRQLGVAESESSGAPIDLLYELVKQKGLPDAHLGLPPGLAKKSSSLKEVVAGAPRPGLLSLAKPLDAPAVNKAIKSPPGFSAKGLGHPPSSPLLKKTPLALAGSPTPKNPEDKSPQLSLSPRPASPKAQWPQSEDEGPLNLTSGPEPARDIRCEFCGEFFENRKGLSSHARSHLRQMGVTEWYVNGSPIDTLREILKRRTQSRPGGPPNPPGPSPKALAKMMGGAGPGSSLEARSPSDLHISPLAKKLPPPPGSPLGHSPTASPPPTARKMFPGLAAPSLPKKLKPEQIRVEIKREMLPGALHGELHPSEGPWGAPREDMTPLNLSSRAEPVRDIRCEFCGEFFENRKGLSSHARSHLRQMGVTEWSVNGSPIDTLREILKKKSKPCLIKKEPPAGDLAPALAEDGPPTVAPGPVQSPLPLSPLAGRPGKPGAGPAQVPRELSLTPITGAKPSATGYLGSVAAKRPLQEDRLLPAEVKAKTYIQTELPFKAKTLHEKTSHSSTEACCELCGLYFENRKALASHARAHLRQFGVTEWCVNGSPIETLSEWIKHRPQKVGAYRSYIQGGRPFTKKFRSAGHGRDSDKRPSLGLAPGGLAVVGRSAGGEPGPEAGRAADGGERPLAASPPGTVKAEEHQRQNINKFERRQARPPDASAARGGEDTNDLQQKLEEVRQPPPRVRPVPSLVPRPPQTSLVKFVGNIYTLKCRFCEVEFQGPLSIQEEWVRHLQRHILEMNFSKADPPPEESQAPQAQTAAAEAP
T1 sequence (Q96SW2 whole entry, the tested form may be a part): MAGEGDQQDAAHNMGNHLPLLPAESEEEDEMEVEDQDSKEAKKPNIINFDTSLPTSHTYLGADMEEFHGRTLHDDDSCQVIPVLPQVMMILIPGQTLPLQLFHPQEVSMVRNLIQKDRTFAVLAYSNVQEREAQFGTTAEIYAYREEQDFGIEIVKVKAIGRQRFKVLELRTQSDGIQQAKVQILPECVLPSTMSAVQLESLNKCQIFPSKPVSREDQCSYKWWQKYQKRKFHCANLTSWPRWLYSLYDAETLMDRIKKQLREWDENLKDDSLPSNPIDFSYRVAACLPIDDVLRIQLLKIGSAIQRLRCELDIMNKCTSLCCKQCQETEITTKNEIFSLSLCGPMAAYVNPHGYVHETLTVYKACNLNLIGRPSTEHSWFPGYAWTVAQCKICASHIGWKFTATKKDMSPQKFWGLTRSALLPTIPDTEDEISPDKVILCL
T1 sequence (Q16531 whole entry partner, the tested form may be a part): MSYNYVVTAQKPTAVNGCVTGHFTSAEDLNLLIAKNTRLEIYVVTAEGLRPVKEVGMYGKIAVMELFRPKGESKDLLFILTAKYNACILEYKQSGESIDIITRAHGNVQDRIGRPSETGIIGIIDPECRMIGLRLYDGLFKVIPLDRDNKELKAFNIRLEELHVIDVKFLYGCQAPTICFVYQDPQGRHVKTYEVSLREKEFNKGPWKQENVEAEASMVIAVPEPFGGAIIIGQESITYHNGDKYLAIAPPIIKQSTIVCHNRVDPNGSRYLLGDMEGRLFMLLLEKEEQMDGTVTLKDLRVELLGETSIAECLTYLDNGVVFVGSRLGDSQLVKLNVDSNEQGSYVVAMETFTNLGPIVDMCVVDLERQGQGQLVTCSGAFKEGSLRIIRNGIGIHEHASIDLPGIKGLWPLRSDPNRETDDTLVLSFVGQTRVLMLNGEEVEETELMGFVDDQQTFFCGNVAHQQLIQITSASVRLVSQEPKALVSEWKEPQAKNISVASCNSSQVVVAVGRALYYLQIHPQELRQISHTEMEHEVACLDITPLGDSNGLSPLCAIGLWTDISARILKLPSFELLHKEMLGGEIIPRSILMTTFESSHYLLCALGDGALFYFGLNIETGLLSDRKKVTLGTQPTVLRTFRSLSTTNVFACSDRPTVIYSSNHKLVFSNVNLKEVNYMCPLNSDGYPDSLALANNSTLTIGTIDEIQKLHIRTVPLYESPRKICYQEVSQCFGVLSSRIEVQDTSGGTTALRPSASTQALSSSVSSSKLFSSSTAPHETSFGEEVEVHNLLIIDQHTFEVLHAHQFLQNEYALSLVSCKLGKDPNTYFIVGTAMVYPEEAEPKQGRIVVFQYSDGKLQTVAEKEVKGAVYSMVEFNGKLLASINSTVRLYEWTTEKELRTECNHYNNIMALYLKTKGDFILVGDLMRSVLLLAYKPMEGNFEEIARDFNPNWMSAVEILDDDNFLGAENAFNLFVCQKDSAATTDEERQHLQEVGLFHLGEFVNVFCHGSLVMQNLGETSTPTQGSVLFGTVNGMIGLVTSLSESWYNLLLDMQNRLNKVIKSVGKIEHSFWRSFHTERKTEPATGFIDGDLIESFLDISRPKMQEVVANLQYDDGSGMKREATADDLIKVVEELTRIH

Take `O=C1CCN(c2cnn3ccc(CN4CCN(CC5CCC5)CC4)cc23)C(=O)N1` [Example 188, 1-(5-((4-(cyclobutylmethyl)piperazin-1-yl)methyl)pyrazolo[1,5-a]pyridin-3-yl)dihydropyrimidine-2,4(1H,3H)-dione]: the Dmax at 25 µM was found to be 77%, the remaining activity at 25 µM came to 23% and the DC50 came out at 71 nM.

With `O=C1CCN(c2cnn3ccc(CC4CCN(Cc5cscn5)CC4)cc23)C(=O)N1` [Example 115], the Dmax at 25 µM is 54%, the remaining activity at 25 µM worked out at 46% and the DC50 was found to be 267 nM.

Regarding `C[C@H]1CN(Cc2ccn3ncc(N4CCC(=O)NC4=O)c3c2)CCN1CC1CCOCC1` [Example 202], the Dmax at 25 µM was found to be 85%, the remaining activity at 25 µM is 15% and the DC50 amounted to 5 nM.

In the case of `C[C@H]1C[C@H](Cc2ccn3ncc(N4CCC(=O)NC4=O)c3c2)CCN1C(=O)C1CCC1` [Example 289], the Dmax at 25 µM was determined as 79%, the remaining activity at 25 µM was 21% and the DC50 was found to be 33 nM.

For `O=C1CCN(c2cnn3ccc(CC4CCN(Cc5ccccc5)CC4)cc23)C(=O)N1` [Example 29, 1-(5-((1-benzylpiperidin-4-yl)methyl)pyrazolo[1,5-a]pyridin-3-yl)dihydropyrimidine-2,4(1H,3H)-dione], the Dmax at 25 µM came to 74%, the remaining activity at 25 µM is 26% and the DC50 is 232 nM.

Take `CC(C)CN1CCN(Cc2ccn3ncc(N4CCC(=O)NC4=O)c3c2)CC1` [Example 186, 1-(5-((4-isobutylpiperazin-1-yl)methyl)pyrazolo[1,5-a]pyridin-3-yl)dihydropyrimidine-2,4(1H,3H)-dione]: the Dmax at 25 µM worked out at 79%, the remaining activity at 25 µM is 21% and the DC50 came out at 76 nM.

For the compound `CC(C)(CC1CCOCC1)N1CCC(Cc2ccn3ncc(N4CCC(=O)NC4=O)c3c2)CC1` [Example 137, 1-(5-((1-(2-methyl-1-(tetrahydro-2H-pyran-4-yl)propan-2-yl)piperidin-4-yl)methyl)pyrazolo[1,5-a]pyridin-3-yl)dihydropyrimidine-2,4(1H,3H)-dione], the Dmax at 25 µM was 77%, the remaining activity at 25 µM is 23% and the DC50 is 121 nM.

As for `C[C@H]1CN(CC2CC(F)(F)C2)CCN1Cc1ccn2ncc(N3CCC(=O)NC3=O)c2c1` [Example 226, (S)-1-(5-((4-((3,3-difluorocyclobutyl)methyl)-2-methylpiperazin-1-yl)methyl)pyrazolo[1,5-a]pyridin-3-yl)dihydropyrimidine-2,4(1H,3H)-dione], the Dmax at 25 µM was 45%, the remaining activity at 25 µM is 55% and the DC50 is 1230 nM.

`C[C@H]1C[C@H](Cc2ccn3ncc(N4CCC(=O)NC4=O)c3c2)CCN1CCC1CCOCC1` [Example 148]: the Dmax at 25 µM turned out to be 86%, the remaining activity at 25 µM is 14% and the DC50 came out at 63 nM.

In the case of `O=C1CCN(c2cnn3ccc(CC4CCN(Cc5ccc(OC(F)(F)F)cc5)CC4)cc23)C(=O)N1` [Example 56, 1-(5-((1-(4-(trifluoromethoxy)benzyl)piperidin-4-yl)methyl)pyrazolo[1,5-a]pyridin-3-yl)dihydropyrimidine-2,4(1H,3H)-dione], the Dmax at 25 µM was 63%, the remaining activity at 25 µM came out at 37% and the DC50 is 204 nM.

On to `C[C@H]1C[C@H](Cc2ccn3ncc(N4CCC(=O)NC4=O)c3c2)CCN1S(=O)(=O)N(C)C` [Example 292], for which the Dmax at 25 µM turned out to be 83%, the remaining activity at 25 µM came out at 17% and the DC50 came to 11 nM.

As for `CCCC(CCC)N1CCC(Cc2ccn3ncc(N4CCC(=O)NC4=O)c3c2)CC1` [Example 12, 1-(5-((1-(heptan-4-yl)piperidin-4-yl)methyl)pyrazolo[1,5-a]pyridin-3-yl)dihydropyrimidine-2,4(1H,3H)-dione], the Dmax at 25 µM amounted to 84%, the remaining activity at 25 µM worked out at 16% and the DC50 was 51 nM.

In the case of `C[C@@H]1CN(Cc2ccn3ncc(N4CCC(=O)NC4=O)c3c2)CCN1CC1CCOCC1` [Example 217], the Dmax at 25 µM is 75%, the remaining activity at 25 µM worked out at 25% and the DC50 was determined as 92 nM.

For the compound `C[C@@H]1CN(Cc2ccn3ncc(N4CCC(=O)NC4=O)c3c2)CCN1Cc1cccnc1` [Example 215], the Dmax at 25 µM worked out at 19%, the remaining activity at 25 µM worked out at 81% and the DC50 turned out to be 2620 nM.

As for `Cn1nccc1CN1CCC(Cc2ccn3ncc(N4CCC(=O)NC4=O)c3c2)CC1` [Example 114], the Dmax at 25 µM is 68%, the remaining activity at 25 µM was determined as 32% and the DC50 was determined as 90 nM.

As to `CO[C@H]1C[C@@H](CN2CCC(Cc3ccn4ncc(N5CCC(=O)NC5=O)c4c3)CC2)C1` [Example 300, 1-(5-((1-(((1s,3s)-3-methoxycyclobutyl)methyl)piperidin-4-yl)methyl)pyrazolo[1,5-a]pyridin-3-yl)dihydropyrimidine-2,4(1H,3H)-dione], the Dmax at 25 µM came to 82%, the remaining activity at 25 µM stood at 18% and the DC50 is 3 nM.

On to `CCC(CC)N1CCN(Cc2ccn3ncc(N4CCC(=O)NC4=O)c3c2)CC1` [Example 164], for which the Dmax at 25 µM stood at 69%, the remaining activity at 25 µM was found to be 31% and the DC50 is 323 nM.

For the compound `O=C1CCN(c2cnn3ccc(CN4CCN(C5CCCCC5)CC4)cc23)C(=O)N1` [Example 338, 1-(5-((4-cyclohexylpiperazin-1-yl)methyl)pyrazolo[1,5-a]pyridin-3-yl)dihydropyrimidine-2,4(1H,3H)-dione], the Dmax at 25 µM was determined as 83%, the remaining activity at 25 µM came to 17% and the DC50 amounted to 33 nM.

For `CC(C)CN1CCN(Cc2ccn3ncc(N4CCC(=O)NC4=O)c3c2)C[C@H]1C` [Example 216], the Dmax at 25 µM amounted to 65%, the remaining activity at 25 µM was 35% and the DC50 is 89 nM.

For `C[C@@H]1CC(CN2CCN(Cc3ccn4ncc(N5CCC(=O)NC5=O)c4c3)CC2)C[C@H](C)O1` (stereo partly drawn) [Example 193, 1-(5-((4-(((2R,6S)-2,6-dimethyltetrahydro-2H-pyran-4-yl)methyl)piperazin-1-yl)methyl)pyrazolo[1,5-a]pyridin-3-yl)dihydropyrimidine-2,4(1H,3H)-dione], the Dmax at 25 µM was 86%, the remaining activity at 25 µM is 14% and the DC50 was determined as 10 nM.

Turning to `CC(C)(CN1CCN(Cc2ccn3ncc(N4CCC(=O)NC4=O)c3c2)CC1)C(F)(F)F` [Example 241, 1-(5-((4-(3,3,3-trifluoro-2,2-dimethylpropyl)piperazin-1-yl)methyl)pyrazolo[1,5-a]pyridin-3-yl)dihydropyrimidine-2,4(1H,3H)-dione], the Dmax at 25 µM is 44%, the remaining activity at 25 µM came to 56% and the DC50 turned out to be 351 nM.

Turning to `O=C1CCN(c2cnn3ccc(CN4CCN(CC5CCCOC5)CC4)cc23)C(=O)N1` (stereo not drawn) [Example 162], the Dmax at 25 µM was found to be 79%, the remaining activity at 25 µM is 21% and the DC50 is 79 nM.

`O=C1CCN(c2cnn3ccc(CC4CCN(S(=O)(=O)C5CC5)CC4)cc23)C(=O)N1` [Example 89]: the Dmax at 25 µM was determined as 77%, the remaining activity at 25 µM was determined as 23% and the DC50 came out at 285 nM.

Turning to `CO[C@H]1CC[C@@H](CN2CCC(Cc3ccn4ncc(N5CCC(=O)NC5=O)c4c3)CC2)CC1` [Example 65, 1-(5-((1-(((1s,4s)-4-methoxycyclohexyl)methyl)piperidin-4-yl)methyl)pyrazolo[1,5-a]pyridin-3-yl)dihydropyrimidine-2,4(1H,3H)-dione], the Dmax at 25 µM amounted to 94%, the remaining activity at 25 µM came out at 6% and the DC50 is 32 nM.

With `CC(C)COC(=O)N1CCC(Cc2ccn3ncc(N4CCC(=O)NC4=O)c3c2)CC1` [Example 95], the Dmax at 25 µM is 43%, the remaining activity at 25 µM was 57% and the DC50 was more than 25000 nM.

(Values after patent US11787785B2 (NOVARTIS AG, priority 2021, dated 2023).)
